Test results taken from patent US6603046B1, “Bis-aromatic a,β-unsaturated ketones” (Lica Pharmaceuticals A/S, priority 1992, dated 2003).
In brackets after ≈: the same amount, converted by molar mass. Read-outs that look alike come from different tables or passages of the source.

Legend:
Bacillus subtilis = assay: MIC, macrodilution (Example 17); format: cell-based; conditions: 1 strain
[1] = system: L. donovani promastigotes; assay: In vitro growth of L. donovani promastigotes, 3H-thymidine uptake (Example 4); format: cell-based; conditions: Leishmania donovani; for inhibition at 1 µg/mL: 1 μg/ml; for inhibition at 2 µg/mL: 2 μg/ml; for inhibition at 5 µg/mL: 5 μg/ml; for inhibition at 10 µg/mL: 10 μg/ml; for inhibition at 20 µg/mL: 20 μg/ml
L. pneumophilia = assay: microbe, parasite or virus in culture; format: cell-based; conditions: Legionella pneumophila
P. falciparum = P. falciparum growth in vitro (Table 14.1, strain not stated); format: cell-based; conditions: Plasmodium falciparum, read-out: inhibition of malaria parasites (middle figure) (converted)
Summary of the method: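 Parasitized erythrocytes (~1% parasitemia) in RPMI with graded compound concentrations, cultured 48 h. 3H-hypoxanthine added for the final 24 h. Growth measured as 3H-hypoxanthine incorporation into parasite DNA by liquid scintillation.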

[2] = system: L. major amastigotes in U937 cells; assay: L. major amastigotes in U937 cells, microscopic counting (Example 7); format: cell-based, Leishmania major
M. bovis = format: cell-based; conditions: n = 8
[3] = Plasma concentration and half live in mice after i.p. injection, HPLC (Example 25); format: in vivo
Method: Serum or plasma was diluted with one part of acetonitrile, left for 15 min at 4° C., and centrifugated for 3 min at 10,000 g. An aliquot of the supernatant was chromatographed at 37° C. by HPLC over Spherisorb ODS-2 (5 μm, 120×4.5 mm, Phase Separation LTD, UK) using acetonitrile aqueous acetic acid, 2%, (1:1) as an eluent, flow rate 1.5 ml/min, and UV detection (370 nm and 254 nm).
Standards. Standards containing 14.68 μg/ml, 4.90 μg/ml, and 0.45 μg/ml plasma were freshly prepared every day. The standards were wrapped in tinfoil to avoid light catalyzed isomerization.
A solution of 2,4dimethylnitrobenzene (0.20 μl/ml) was used as an internal standard.
Licochalcone A (10 mg/kg mouse≈200 μg/mouse) was injected i.p. into mice. The mice were sacrificed and bleeded after 15, 30, 60, 120, 240 and 480 min. The plasma was obtained by centrifugation. 100 μl of plasma was added to 100 μl of the solution of the internal standard and the mixture left for 30 min. The mixture was centrifuged for 5 min at 10,000 g and 20 μl of the clear supernatant was analyzed by HPLC (Example 23).

L. major in U937 cells = assay: Intracellular parasite killing, parasite survival index (PSI); format: cell-based, Leishmania major; conditions: 1 μg/ml
Method: Killing was quantified by a modification of a technique described by Berman et al.
Briefly, 3 days after infection, microtiter well cultures were rinsed once with medium, exposed to 100 μl of prewarmed (37° C.) 0.01% sodium dodecyl-sulfate (SDS) in medium RPMI 1640, and returned to 34° C. for 15 min. By this procedure, macrophages were lysed, according to microscopic observation, and amastigotes were released. 100 μl of medium RPMI 1640 with 20% HFCS were added to each well without removal of the lysing solution. The plates were then transferred to a 26° C. incubator, and amastigotes were left to transform to promastigotes. After 48 h, parasite growth was recorded by adding 1 μCi of ^3H-thymidine (New England Nuclear Corp., Boston, Mass.) to each well. The parasites were harvested 24 h later on glass fiber filters with a harvesting machine (Skatron, Lierbyen, Norway), and ^3H-thymidine incorporation was measured in a liquid scintillation counter (Tricarb; Packard Instrument Co., Inc., Rockville, Md.). The parasite survival index (PSI) was determined. This index is the mean 3H-thymidine incorporation (cpm) in treated infected cells as compared with the untreated infected cells. [formula]

Corynebacterium species = assay: microbe, parasite or virus in culture; format: cell-based
Streptococcus pneumonia = assay: MIC, macrodilution (Example 17); format: cell-based; conditions: Streptococcus pneumoniae; 1 strain
[4] = read-out: percentage inhibition of 3H-thymidine uptake (mean ± SEM), 3-day culture
[5] = read-out: percentage inhibition of 3H-thymidine uptake (mean ± SEM), 6-day culture
[6] = 3 days after infection, 0.5 μg/ml
[7] = 3 days after infection, 1 μg/ml
[8] = 6 days after infection, 0.5 μg/ml
[9] = 6 days after infection, 1 μg/ml

Work on C=CC(C)(C)c1cc(/C=C/C(=O)c2ccc(O)cc2)c(OC)cc1O [Licochalcone A, licochalcone A] yielded an MIC (Bacillus subtilis) of 4 µg/mL (≈ 11.8 µM), an inhibition at 1 µg/mL [1, 4] of 15.2 ± 14.5% and an inhibition at 2 µg/mL [1, 4] of 23.5 ± 16.4%. For the same molecule, the inhibition at 5 µg/mL [1, 4] was 53.7 ± 14%, the inhibition at 10 µg/mL [1, 4] was 81.5 ± 8% and the inhibition at 20 µg/mL [1, 4] was 96.7 ± 0.8%. The inhibition at 1 µg/mL [1, 5] was 30.4 ± 23.8%, the inhibition at 2 µg/mL [1, 5] was 42.2 ± 16.6% and the inhibition at 5 µg/mL [1, 5] was 70.1 ± 12.4%. It also gave an inhibition at 10 µg/mL [1, 5] of 91.9 ± 3.1%, an inhibition at 20 µg/mL [1, 5] of 98.3 ± 0.8% and an MIC (L. pneumophilia; L. pneumophilia serogr. 1, 4 strains) of 1 to 4 µg/mL (≈ 2.96 to 11.8 µM). For the same molecule, the MIC (L. pneumophilia; L. pneumophilia serogr. 2-7, 6 strains) was 2 to 4 µg/mL (≈ 5.91 to 11.8 µM), the MIC (L. pneumophilia; read-out: MIC-values, clinical isolates) was 1 to 4 µg/mL (≈ 2.96 to 11.8 µM) and the inhibition at 0.5 µg/mL (P. falciparum; 0.5 μg/ml) was 39%. The inhibition at 1 µg/mL (P. falciparum; 1 μg/ml) was 69%, the inhibition at 5 µg/mL (P. falciparum; 5 μg/ml) was 98% and the inhibition at 10 µg/mL (P. falciparum; 10 μg/ml) was 98%. For the same molecule, the “% of amast.” value [2, 6] was 96.6%, the “% of infec. cells” value [2, 6] was 28.0% and the amast. per cell [2, 6] was 2.3. For the same molecule, the proma per cell [2, 6] was 0.1, the total amast. [2, 6] was 65.0 ×10^6 and the total proma. [2, 6] was 2.3 ×10^6. For the same molecule, the “% of amast.” value [2, 7] was 91.2%, the “% of infec. cells” value [2, 7] was 19.0% and the amast. per cell [2, 7] was 2.0. For the same molecule, the proma per cell [2, 7] was 0.2, the total amast. [2, 7] was 38.3 ×10^6 and the total proma. [2, 7] was 3.7 ×10^6. The “% of infec. cells” value ([2]; 3 days after infection, 5 μg/ml) was 0%, the “% of infec. cells” value ([2]; 3 days after infection, 10 μg/ml) was 0% and the “% of amast.” value [2, 8] was 100%. The “% of infec. cells” value [2, 8] was 13.7%, the amast. per cell [2, 8] was 3.1 and the proma per cell [2, 8] was 0. For the same molecule, the total amast. [2, 8] was 42.0 ×10^6, the total proma. [2, 8] was 0 ×10^6 and the “% of amast.” value [2, 9] was 100%. The “% of infec. cells” value [2, 9] was 3.0%, the amast. per cell [2, 9] was 1.8 and the proma per cell [2, 9] was 0. The total amast. [2, 9] was 5.3 ×10^6, the total proma. [2, 9] was 0 ×10^6 and the “% of infec. cells” value ([2]; 6 days after infection, 5 μg/ml) was 0%. For the same molecule, the “% of infec. cells” value ([2]; 6 days after infection, 10 μg/ml) was 0%, the meanMIC (M. bovis) was “meanMIC = 15.7 μg/ml” and the rangeMIC (M. bovis) was “rangeMIC = 10-20 μg/ml (n = 8)”. For the same molecule, the plasma concentration ([3]; 10 mg/kg i.p., after 120 min) was “below det. limit”, the plasma concentration ([3]; 10 mg/kg i.p., after 240 min) was “below det. limit” and the plasma concentration ([3]; 10 mg/kg i.p., after 480 min) was “below det. limit”. The “metabolites in mouse plasma” value ([3]; HPLC) was “Three metabolites have been detected”, the concentration at 15 min ([3]; mouse, plasma, intraperitoneal, 10 mg/kg i.p., after 15 min) was 1330 ng/mL and the concentration at 30 min ([3]; mouse, plasma, intraperitoneal, 10 mg/kg i.p., after 30 min) was 280 ng/mL. For the same molecule, the concentration at 60 min ([3]; mouse, plasma, intraperitoneal, 10 mg/kg i.p., after 60 min) was 140 ng/mL, the PSI index (L. major in U937 cells) was “about 5%” and the MIC (Corynebacterium species) was 0.3 to 4 µg/mL (≈ 0.887 to 11.8 µM). It also gave an MIC (Corynebacterium species; read-out: MIC of one very sensitive corynebacterium species) of 0.3 µg/mL and an MIC (Streptococcus pneumonia) of 4 µg/mL (≈ 11.8 µM).
